According to patent publication US20130172346A1, “USE OF KYNURENIC ACID AMIDE DERIVATIVES FOR THE TREATMENT OF HUNTINGTON'S DISEASE” (priority 2010, published 2013):
Entries after “also recorded” stand apart in the source; their conditions may differ.

What was measured:
[1] = system: N171-82Q transgenic mice; experiment: Body weight measurements; format: in vivo, mouse; settings: 100 mg/kg i.p., weekly measurement from age of 7 weeks; p=0.00022
Description: (§1) The transgenic N171-82Q mice were originally obtained from Jackson Laboratories (Bar Harbor, Me., United States), later we have propagated them in our laboratories by using B6C3F1 background strains. The progeny were genotyped by PCR technique from tail-DNA. The animals were kept in transgenic cages under standard laboratory conditions (up to 5 animals/cage), and had free access to water and food. Male and female transgenic and wild type animals respectively, were equally allotted to the individual test groups. The transgenic animals were injected intraperitoneally (5 ml/kg of body weight) every day at the same time with 2-(2-N,N-dimethylaminoethylamino-1-carbonyl)-1H-quinolin-4-one hydrochloride (at a dose of 100 mg/kg of body weight, dissolved in distilled water, pH was adjusted to 6.5 with 1N NaOH). The control transgenic and wild animals, respectively obtained a salt solution comprising 0.1 M of phosphate buffer (PBS) (5 ml/kg of body weight). The animals were inoculated in the first 5 days of the week starting from the age of 7 weeks.
(§2) The body weight of the animals was measured once a week, always at the same day of the week and at the same time of the day, starting from the age of 7 weeks. […]

[2] = system: N171-82Q transgenic mice; experiment: Survival test in N171-82Q transgenic mouse model of Huntington's disease; format: in vivo; settings: p=0.016
Description: as §1
The transgenic animals were inoculated as disclosed above with 2-(2-N,N-dimethylamino-ethylamino-1-carbonyl)-1H-quinolin-4-one hydrochloride (n=10), and the transgenic animals serving as a control, were inoculated with 0.1 M PBS (n=10) until the animals perished. As negative control wild type animals, treated with 0.1M PBS were used (n=10).
(§3) The statistical analysis of our data was performed by using Statistica software (StatSoft Inc., (2008) STATISTICA version 8.0.; www.statsoft.com). The analysis of the survival data was carried out by Kaplan-Meyer survival curves and Mantel-Cox log rank test. The normality of the data of the open-field test, the body weight measurement and the striatal cell volume measurement was first examined by Shapiro-Wilk W test. […] The significance level was determined at p<0.05. In case of normal distribution an average±S.E.M and in case of non-normal distribution the median and the interquartile range were used in order to depict the data

[3] = system: N171-82Q transgenic mice; experiment: Open-field test for examining motor activity (covered distance); format: in vivo, mouse
Description: as §1
A test method almost identical with the method disclosed for the survival test was used with the exception of the number of animals (n=9, n=8, n=8 corresponding to the above group assignment). The spontaneous motor activity of the mice was tested once a week 2 hours after the given daily inoculation, always at the same day of the week. The animals stayed in the test unit (48×48×40 cm box open from above) for 5 minutes, the motor parameters were registered by the aid of Conducta 1.0 software (Experimetria Ltd., Budapest, Hungary). In order to characterize the motor activity, the parameter of the covered distance was selected and the data of the examined 9 weeks (between the age of 7 and 15 weeks) were evaluated as follows: an average of the first, second, third 3 weeks was calculated for each test group and the three test groups were compared according to the obtained average values.
as §3

[4] = system: neurons of the striatum of N171-82Q transgenic mice; experiment: Immunohistochemistry with cell volume estimation of striatal neurons; format: in vivo, mouse; settings: 100 mg/kg i.p.
Description: as §1, §2

[5] = system: organic anion transporters; settings: mediated by organic anion transporters; cited from earlier work
[6] = cited from earlier work

SMILES | body weight compared to the control transgenic animals [1] | average survival time ([2]; N171-82Q transgenic mice, intraperitoneal, chronic, 100 mg/kg, n=10, control transgenic 111.3±6.6 days) [days] | survival compared to the control groups (Kaplan-Meier) ([2]; N171-82Q transgenic mice, FIG. 1) | improvement of average survival time ([2]; vs control transgenic animals, intraperitoneal, chronic, 100 mg/kg) [%] | covered distance, last 3 weeks ([3]; 100 mg/kg i.p., last 3 weeks of treatment, p=0.0094) | covered distance, second 3 weeks ([3]; 100 mg/kg i.p., second 3 weeks) | covered distance, first 3 weeks ([3]; 5 minutes, 2 hours after daily inoculation, 100 mg/kg i.p., first 3 weeks (from age of 7 weeks)) | covered distance in progress of time ([3]; N171-82Q transgenic mice, FIG. 2) | size (volume) of the neurons in the striatum ([4]; treated transgenic animals at age of 16 weeks, interquartile range 716.2-787.4, untreated transgenic 663.4, wild type 739.0) [μm^3] | atrophy of the neurons in the striatum ([4]; treated vs untreated N171-82Q transgenic animals, hydrochloride, 100 mg/kg) | elimination from the brain and organism [5] | solubility [6]
CN(C)CCNC(=O)c1cc(=O)c2ccccc2[nH]1.Cl [2-(2-N,N-dimethylaminoethylamino-1-carbonyl)-1H-quinolin-4-one hydrochloride] | significantly increased | 145.5 ± 12.0 | significantly increased | 30.7 | significant improvement | positive changes | has not improved | significant improvement | 744.5 | successfully prevented the atrophy; also recorded: prevented the development of atrophy |  | 
O=C(O)c1cc(=O)c2ccccc2[nH]1 [KYNA, kynurenic acid] |  |  |  |  |  |  |  |  |  |  | rapidly eliminated | poor
